Here are results for 19 compounds from patent US5773438A, “Synthetic matrix metalloprotease inhibitors and use thereof” (Glycomed Incorporated, priority 1994, dated 1998).

Assay [1] deals with T1, human skin fibroblast collagenase (Homo sapiens, UniProt P03956).
T1 construct: endogenous in cells; host or cells: human skin fibroblasts
T1 sequence (P03956 100-469): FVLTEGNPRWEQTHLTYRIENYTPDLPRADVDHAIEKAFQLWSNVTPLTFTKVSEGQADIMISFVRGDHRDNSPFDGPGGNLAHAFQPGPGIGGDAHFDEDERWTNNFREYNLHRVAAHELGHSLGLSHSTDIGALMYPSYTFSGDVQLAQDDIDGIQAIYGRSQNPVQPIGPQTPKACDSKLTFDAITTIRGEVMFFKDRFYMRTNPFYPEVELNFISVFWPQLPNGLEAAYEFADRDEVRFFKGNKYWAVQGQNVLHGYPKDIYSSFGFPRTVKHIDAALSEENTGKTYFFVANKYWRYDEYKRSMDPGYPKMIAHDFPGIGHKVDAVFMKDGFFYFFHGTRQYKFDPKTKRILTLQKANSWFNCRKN
The assay can be described thus: inhibition of collagenase, synthetic thiol ester substrate, Ki (Table 1). In kind it is biochemical.
Method: Specifically, assay of inhibition activity can be conducted as follows. Inhibitors may be assayed against crude or purified human skin fibroblast collagenase, or purified human gingival fibroblast collagenase using the synthetic thiol ester substrate at pH 6.5 exactly as described by Kortylewicz & Galardy, J Med Chem (1990) 33:263-273, at a collagenase concentration of 1-2 nM. The candidate inhibitors are tested for their ability to inhibit crude collagenase and gelatinase from human skin fibroblasts, crude collagenase and gelatinase from purulent human neutrophils in this assay.

Assay [2] addresses T2, Human gingival fibrblast collagenase (Homo sapiens, UniProt P03956).
T2 construct: endogenous in cells; host or cells: human gingival fibroblasts
T2 sequence (P03956 100-469): T1 sequence (P03956 100-469)
Put plainly: inhibition of human gingival fibroblast collagenase (Table 2). The format is biochemical. The following applies: read-out: HGFC inhibitory activity.
Method: (§1) Specifically, assay of inhibition activity can be conducted as follows. […] Assays for inhibition of human stromelysin are conducted as described by Teahan, J., et al., Biochemistry (1989) 20:8497-8501.
(§2) Assay of inhibition activity can be conducted using a fluorogenic substrate developed by Knight et al., FEBS Letters (1992) 296:263. This method uses a fluorometer to determine the rate of substrate hydrolysis in a 96 well plate format. Reaction rates are determined at several substrate concentrations, and multiple inhibitor levels. The data are analyzed by Lineweaver-Burk, Dixon and Henderson plot analyses (Enzyme Kinetics (1975) Irwin Segal (John Wiley & Sons, Inc., publishers), and as described by Henderson, Biochem J. (1972) 127:321). The substrate levels range from 10-30μM. […] Inhibitors may be assayed against purified 72 kD gelatinase, 92 kD gelatinase, neutrophil collagenase, stromelysin or other proteases as appropriate. The enzymes are activated at 37° C. with APMA (4-aminophenylmercuric acetate), and the assays are carried out at room temperature.

Assay [3] relates to protease activity of chronic wound fluid. Put plainly: Azocoll assay of protease activity in chronic wound fluid. The note with it: FIG. 7; for inhibition of protease activity of chronic wound fluid: highest concentration (800 μg/ml). The format is biochemical, human. As to the method:
Fluids were collected from 3 types of human wounds termed closed spontaneously healing wounds, open slowly healing wounds, and open chronic wounds. In the first category were fluids collected from the chest wall of women following mastectomy surgery. Fluids from non-infected wounds that were left open for valid surgical reasons were considered open slowly healing wounds. An occlusive dressing was placed over the wound bed, and fluids were collected after 2-6 hours of occlusion. Finally, fluids were also collected from chronic open wounds by covering the wounds with occlusive dressings. Wounds were considered to be chronic if they were not clinically infected and had been open and not healing for more than 4 weeks.
The various wound fluids were assayed for matrix metalloproteinase activity using the Azocoll assay essentially as described by Chavira, et al., Analytic Biochemistry (1984), 136:446.
The fluids were centrifuged, and the supernatants filtered using a 0.45μ sterile Gelman filter. The filtrates were stored frozen at -80° C. until tested for protease activity.
The effects of four inhibitors on the protease activity present in wound fluids were determined. The inhibitors were: compounds
Stock solutions of the four inhibitors were all prepared at a concentration of 800 μg/ml. Due to different solubility properties of the inhibitors, different techniques were utilized. […] S1209 was dissolved in 1% DMSO then dissolved in 10 mM citrate, pH 5.5, containing 0.05% methyl cellulose. 39A was dissolved in propylene glycol (to give a final concentration of 2.4%) then dissolved in 1 mM CaCl2, 50 mM Tris-Cl, pH 7.8. 21A was dissolved in propylene glycol (2.4%) methyl cellulose (0.05%) and 10 mM citrate, pH 8.
The protease substrate, Azocoll, was obtained from Sigma Chemical Corporation and it is a substrate for collagenase/gelatinase-like metalloproteinase enzymes and general proteases. Clostridium histolyticum collagenase (the crude form of the enzyme) was from Worthington Biochemicals. General chemicals including TRIS buffer, DMSO, and CaCl2 were from Sigma Chemical Corporation.
Briefly, 900 μl of the Azocoll substrate suspension in buffer ([…] in 50 mM TRIS, pH 7.8, 1 mM CaCl2) was added to 1.5 ml microcentrifuge tubes then 50 μl of inhibitor (or buffer) and 50 μl of chronic wound fluid (or collagenase standard) were added to the reaction tube. The reaction tubes were placed at 37° C. in a shaker that inverted the tubes 30 times per minute. After 24 hours of incubation, the reaction tubes were centrifuges at 10,000 X g and the absorbance of the supernatant solution was measured at 520 nm with a Milton-Roy spectrophotometer. Proteolysis of Azocoll substrate generates soluble colored fragments from the insoluble Azocoll substrate. Wound fluid samples were incubated alone or with the inhibitors. Controls included incubation of the Azocoll substrate with the assay buffer to measure spontaneous degradation of the substrate. A standard curve for digestion of the Azocoll substrate was generated by incubation of the Azocoll with crude bacterial collagenase. Protease levels were expressed as net μg of collagenase equivalent per ml of chronic wound fluid. In the figures, certain of the wound fluids are referred to by an individual name.
For these experiments, due to the different solubility properties of the inhibitors, different techniques were utilized. […] S1209 was dissolved in 1% DMSO then dissolved in 10 mM citrate, pH 5.5, containing 0.05% methyl cellulose. 39A was dissolved in propylene glycol (to give a final concentration of 2.4%) then dissolved in 1 mM CaCl2, […] Tris-Cl, pH 7.8. 21A was dissolved in propylene glycol (2.4%) methyl cellulose (0.05%) and 10 mM citrate, pH 8.

The next assay addresses Stromelysin (Homo sapiens, UniProt P08254). Put plainly: inhibition of stromelysin (Table 2). In kind it is biochemical. The following applies: read-out: Strom inhibitory activity.
Assay [4] has as its target T3, Natural human 72kD gelatinase (Homo sapiens, UniProt P08253).
T3 sequence (P08253 110-660): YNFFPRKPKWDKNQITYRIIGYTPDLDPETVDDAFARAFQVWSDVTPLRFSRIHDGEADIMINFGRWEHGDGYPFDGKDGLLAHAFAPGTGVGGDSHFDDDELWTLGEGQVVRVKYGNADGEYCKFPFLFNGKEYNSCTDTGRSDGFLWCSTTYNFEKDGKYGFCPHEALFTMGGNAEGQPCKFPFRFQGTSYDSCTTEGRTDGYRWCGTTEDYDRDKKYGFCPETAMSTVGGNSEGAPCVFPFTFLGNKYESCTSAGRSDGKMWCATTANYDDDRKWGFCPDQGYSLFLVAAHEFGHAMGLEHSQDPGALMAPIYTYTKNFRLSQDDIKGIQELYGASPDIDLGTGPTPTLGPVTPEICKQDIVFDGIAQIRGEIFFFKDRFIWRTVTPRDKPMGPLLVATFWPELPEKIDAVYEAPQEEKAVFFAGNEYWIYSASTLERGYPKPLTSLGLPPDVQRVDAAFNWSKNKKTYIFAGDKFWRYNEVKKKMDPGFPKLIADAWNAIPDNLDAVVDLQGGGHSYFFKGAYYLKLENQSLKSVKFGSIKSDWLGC
The assay can be described thus: inhibition of 72kD gelatinase (Table 2). The format is biochemical. The following applies: read-out: 72kD G inhibitory activity.
Method: as §1, §2

In assay [5] the target is Recombinant neutrophil collagenase (Homo sapiens, UniProt P22894). The assay can be described thus: inhibition of recombinant neutrophil collagenase (Table 2). In kind it is biochemical. The note with it: read-out: NC inhibitory activity.
Recombinant neutrophil collagenase, sequence (P22894 101-467): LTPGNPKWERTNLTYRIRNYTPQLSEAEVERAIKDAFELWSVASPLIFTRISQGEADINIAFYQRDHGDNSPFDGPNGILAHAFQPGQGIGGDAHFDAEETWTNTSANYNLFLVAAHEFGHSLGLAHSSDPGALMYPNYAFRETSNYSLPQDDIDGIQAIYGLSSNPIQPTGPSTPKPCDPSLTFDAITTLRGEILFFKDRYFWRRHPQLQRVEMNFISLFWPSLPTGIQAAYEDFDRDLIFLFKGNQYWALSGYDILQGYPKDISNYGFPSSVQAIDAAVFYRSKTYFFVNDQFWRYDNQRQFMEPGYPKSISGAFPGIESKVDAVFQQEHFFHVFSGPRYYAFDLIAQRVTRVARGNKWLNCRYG
Method: as §1, §2
Assay [6] concerns PdiBu-Induced Epidermal Hyperplasia. The assay can be described thus: PdiBu-induced epidermal hyperplasia mouse model (psoriasis). In kind it is in vivo, hairless mice. The note with it: topical.
Method: The phorbol ester, PdiBu (20 nmol in 20 μl if acetone) was applied to both ears of hairless mice (h/h) (approximately 1 cm^2 each). The test compounds (in total volume of 20 μl) were then applied to the right ear immediately (15 to 30 min) following PdiBu. The left ear of each animal received an equivalent amount (20 μl) of vehicle. Test compounds (and vehicle) were reapplied at 6 and 18 hours following PdiBu. Treatment times were staggered to allow exact time intervals to be obtained. At 30 hours after PdiBu, animals were anesthetized, and ear thickness values were obtained using a microcaliper. The weights of punch biopsies (6mm) were then obtained. Histology was performed on selected samples taken at 30 hours.
Left ear in each animal served as vehicle-treated controls (PdiBu+ETOH). Thus, the controls for this series include: 1) Untreated controls; 2) PdiBu plus vehicle alone (included for each mouse tested); 3) PdiBu plus AHA; 4) PdiBu plus Lidex® as a positive control.

Each structure is given as a SMILES string.

Stromelysin, sequence (P08254 100-477): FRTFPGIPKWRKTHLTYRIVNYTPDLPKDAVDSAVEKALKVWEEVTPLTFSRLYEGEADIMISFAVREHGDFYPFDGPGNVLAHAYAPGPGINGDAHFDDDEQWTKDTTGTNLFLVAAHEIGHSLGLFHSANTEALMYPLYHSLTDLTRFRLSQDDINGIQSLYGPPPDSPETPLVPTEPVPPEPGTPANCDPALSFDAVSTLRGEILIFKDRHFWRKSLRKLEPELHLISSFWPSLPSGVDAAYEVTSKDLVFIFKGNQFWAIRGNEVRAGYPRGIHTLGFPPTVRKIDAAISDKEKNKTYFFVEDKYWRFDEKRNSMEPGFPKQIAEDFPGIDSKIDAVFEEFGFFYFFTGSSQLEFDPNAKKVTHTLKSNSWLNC

As to `CNC(=O)[C@H](Cc1c[nH]c2ccccc12)NC(=O)C1CCCCC1C(=O)NO` (mixture of isomers) [29A,B, N-[(±)cis-2-(N'-hydroxyamidocarbonyl)-cyclohexylcarbonyl]-L-tryptophan methylamide], the Ki in assay [1] was greater than 10000 nM. Still for that read-out and setting: in the case of `CNC(=O)[C@H](Cc1c[nH]c2ccccc12)NC(=O)[C@@H]1CCCC[C@@H]1C(=O)O` (mixture of isomers) [Compound 35, N-[(+)cis-2-carboxy-cyclohexylcarbonyl]-L-tryptophan methylamide] it was greater than 10000 nM; in that of `CNC(=O)[C@H](Cc1c[nH]c2ccccc12)NC(=O)[C@@H]1CCCC[C@H]1C(=O)O` (mixture of isomers) [Compound 36, N-[(+)trans-2-carboxy-cyclohexylcarbonyl]-L-tryptophan methylamide], greater than 10000 nM. `CNC(=O)[C@H](Cc1ccc2ccccc2c1)NC(=O)C(CC(=O)NO)CC(C)C` (single isomer, unassigned) [Compound 11A, N-[2-isobutyl-3-(N-hydroxyamidocarbonyl)-propanoyl]-L-3-(2-naphthyl)-alanine methylamide]: the values for the Ki in assay [2] and in assay [1] were 0.3 nM and 15 nM, respectively.

With `CC(C)CC(CC(=O)NO)C(=O)N[C@@H](Cc1c[nH]c2ccccc12)C(=O)NCCO` (single isomer, unassigned) [Compound 13A, N-[2-isobutyl-3-(N'-hydroxyamidocarbonyl)-propanoyl]-L-tryptophan 2-hydroxyethylamide], the Ki worked out at 1 nM in assay [2] and 20 nM in assay [1]. As for `COC(=O)CC(CC(C)C)C(=O)N[C@@H](Cc1c[nH]c2ccccc12)C(=O)N[C@@H](C)c1ccccc1` (single isomer, unassigned) [Compound 20A], in assay [2], the Ki came to 0.2 nM. Take `CC(C)CC(CC(=O)NO)C(=O)N[C@@H](Cc1c[nH]c2ccccc12)C(=O)N[C@@H](C)c1ccccc1` (single isomer, unassigned) [Compound 21A]: in assay [1], the Ki is 3 nM. Also, the “inhibition of protease activity of chronic wound fluid” value in assay [3] is on record as 94%. `CC(C)CC(CC(=O)O)C(=O)N[C@@H](Cc1c[nH]c2ccccc12)C(=O)NCC(=O)O` (single isomer, unassigned) [Compound 34A, N-[N-(2-Isobutyl-3-carboxypropanoyl)-L-tryptophanyl]glycine] yielded a Ki in assay [1] greater than 10000 nM.

`CC(C)CC(CC(=O)O)C(=O)N[C@@H](Cc1c[nH]c2ccccc12)C(=O)NCC(=O)O` (single isomer, unassigned) [Compound 34B, N-[N-(2-Isobutyl-3-carboxypropanoyl)-L-tryptophanyl]glycine] showed a Ki in assay [1] greater than 10000 nM. Take `CC(C)CC(CC(=O)NO)C(=O)N[C@@H](Cc1c[nH]c2ccccc12)C(=O)N1CCCCC1` (stereo partly drawn) [17A,B, N-[2-isobutyl-3-(N'-hydroxyamidocarbonyl)-propanoyl]-L-tryptophan piperidinamide]: the Ki in assay [1] is 200 nM. In the case of `CNC(=O)[C@H](Cc1c[nH]c2ccccc12)NC(=O)[C@H](CC(=O)NO)CC(C)C` [Compound 5B, N-[D,L-2-isobutyl-3-(N'-hydroxycarbonylamido)-propanoyl]-tryptophan methylamide], on Stromelysin, the Ki was greater than 1000 nM. For the compound `CCCCCNC(=O)[C@H](Cc1c[nH]c2ccccc12)NC(=O)C(CC(=O)NO)CC(C)C` (stereo partly drawn) [Compound 15A, N-[2-isobutyl-3-(N'-hydroxyamidocarbonyl)-propanoyl]-L-tryptophan amylamide], the Ki came to 0.3 nM in assay [2] and 30 nM in assay [1]. With `CC(C)CC(CC(=O)NO)C(=O)N[C@@H](Cc1c[nH]c2ccccc12)C(=O)O` (stereo partly drawn) [Compound 31A, N-[2-Isobutyl-3-(N'-hydroxyamidocarbonyl)-propanoyl]-L-tryptophan], the Ki in assay [1] stood at 200 nM. `CC(C)CC(CC(=O)O)C(=O)N[C@@H](Cc1c[nH]c2ccccc12)C(=O)NCCCCCCN` (stereo partly drawn) [Compound 32A, N-(D,L-2-Isobutyl-3-carboxypropanoyl)-L-tryptophan (6-aminohexyl-1)amide]: the Ki in assay [1] was greater than 10000 nM.

As to `CC(C)C[C@H](CC(=O)O)C(=O)N[C@@H](Cc1c[nH]c2ccccc12)C(=O)N[C@@H](C)c1ccccc1` [Compound 39A, N-(2R-2-Carboxymethyl-4-methylpentanoyl)-L-tryptophan (S)-methylbenzyl amide], in assay [3], the “effect on proteolytic degradation of Azocoll by chronic wound fluid” value was “significantly less potent that 5A, 21A, or S1209” and the “inhibition of protease activity of chronic wound fluid” value worked out at 23%. The “increase in protease activity of chronic wound fluid” value in assay [3] (0.8 μg/ml) was found to be 30%. In addition, in assay [3] (8 μg/ml), the “increase in protease activity of chronic wound fluid” value is listed as 13%.

With `CC(C)C[C@H](CC(=O)O)C(=O)N[C@@H](Cc1c[nH]c2ccccc12)C(=O)NCCN1CCOCC1` [Compound 51], the Ki in assay [2] came to 32 nM. Take `CC(C)C[C@H](CC(=O)O)C(=O)N[C@@H](Cc1c[nH]c2ccccc12)C(=O)NCCc1ccccc1` [Compound 58, N-[2-Isobutyl-3-hydroxycarbonylpropanoyl]-L-tryptophan-2(phenyl)ethylamide]: the Ki in assay [4] is 79 nM; in assay [5], 26 nM; on Stromelysin, 10600 nM.

With `CC(C)C[C@H](CC(=O)O)C(=O)N[C@@H](Cc1c[nH]c2ccccc12)C(=O)NCCc1ccc(S(N)(=O)=O)cc1` [Compound 59], the figures for the Ki (in assay [4]; in assay [5]; at Stromelysin) were 265 nM, 85 nM and 38200 nM, respectively.

Turning to `CC(=O)OCC(=O)[C@@]12OC(C)(C)O[C@@H]1C[C@H]1[C@@H]3C[C@H](F)C4=CC(=O)C=C[C@]4(C)[C@@]3(F)[C@@H](O)C[C@@]12C` [Lidex, fluocinonide, reference compound], in assay [6], the “effect on PdiBu-induced ear thickness” value is on record as “significantly inhibited” and the “effect on PdiBu-induced increase in punch biopsy weight” value was “significantly inhibited”.
